For test [1], the system named is P-Tyr-100 antiphosphotyrosine monoclonal antibody. Kind of test: Ligand analog screening: fluorescence intensity and polarization vs P-Tyr-100 antibody concentration (Examples 22, 24). The class given is binding, mouse. As to conditions: for Fmax/Fmin: ratio of fluorescence intensity at lowest (Fmax) to highest (Fmin) antibody concentration, 50 nM ligand analog, P-Tyr-100 0.8 to 500 nM, ex/em 480/535 nm. On the procedure: Solutions of test compounds (100 nM) were prepared were prepared in 50 mM Tris-HCl pH 7.5, 10 mM MgCl2, 0.01% Brij-35, 500 μM ATP, 2 mM DTT, 1 mM EGTA. 20 μl aliquots of these solutions were pipetted into the wells of a 384-well microplate. 20 μl aliquots of a serially-diluted […] stock solution of P-Tyr-100 antiphosphotyrosine monoclonal antibody (Cell Signaling Technology, Beverly, Mass.) were added to the wells. The resulting samples contained 50 nM of each ligand analog (Compounds 15, 7, 8, 9, 18 and 19) and antibody concentrations ranging from 0.8 to 500 nM. Fluorescence polarization and intensity of the samples was measured on an EnVision microplate reader (PerkinElmer Life Sciences) using excitation/emission filter settings of 480/535 nm. Increasing fluorescence polarization as a function of antibody concentration (A) provides confirmation of ligand analog binding to the antibody. […] Phosphotyrosine peptide, target ligand, (phospho-pp60 c-src (521-533); TSTEPQY*QPGENL, Bachem California, Inc. Torrance, Calif.) was then added to all samples at a concentration of 10 μM and the fluorescence intensity and polarization measurements were repeated (C, D). […] Displacement of the ligand analogs from antibody is confirmed by depolarization of fluorescence (D compared to A). […] See, FIG. 14.
Compound 12 and Compound 13 were assessed for efficacy using the methods described in Example 22. […] Samples containing 100 nM of Compound 13 and additional components identified in the figure legend were prepared in 50 mM Tris-HCl pH 7.5, 10 mM MgCl2, 0.01% Brij-35, 100 μM ATP, 2 mM DTT, 1 mM EGTA. 100 μL volumes of these samples were transferred to microcuvettes. The fluorescence emission spectrum was recorded for each sample using a Hitachi F-4500 spectrofluorometer (excitation wavelength=520 nm). See, FIG. 15

Test [2] relates to Compound 15+P-Tyr-100 complex. The experiment in a line: Displacement of phosphotyramide ligand analog by phosphotyrosine peptide but not by ATP (Example 17). It counts as binding, mouse. The conditions noted are these: zero to 1 mM ATP. On the procedure: A 5 mM solution of Compound 15 was prepared in water. Separate reactions of 100 nM Compound 15+/−100 nM P-Tyr-100 (Cell Signaling Technology, catalog # 9411) complexes were made in kinase buffer with various amounts of ATP (50 mM Tris, pH 7.5, 10 mM MgCl2, 1 mM EGTA, 0.01% Brij 35, 2 mM DTT, with zero, 0.1, 0.25, 0.5, or 1 mM ATP). The fluorescence emission of each of the ten solutions was measured using a Hitachi F-4500 spectrofluorometer (Ex 450, Em 510, slit width 5 nm for both wavelengths, PMT gain 700 V). After the initial read, 10 μM phospho-pp60 c-src (10 μM final concentration) peptide (521-533) (TSTEPQY*QPGENL) (Bachem, catalog # H-3258) in kinase buffer was added to the antibody:ligand reactions, and the resulting fluorescence intensity was measured on the same instrument at the same settings.

For test [3], the system named is P-Tyr-100 monoclonal anti-phosphotyrosine antibody. The experiment in a line: Competitive immunoassay with Compound 15, anti-phosphotyrosine antibody and phosphotyrosine peptide (Example 12). The class given is binding, mouse. The conditions noted are these: 100 nM ligand analog + 100 nM P-Tyr-100, kinase buffer. On the procedure:
A 5 mM solution of Compound 15 was prepared in water. In 150 μl kinase buffer (50 mM Tris, pH 7.5, 10 mM MgCl2, 1 mM EGTA, 0.01% Brij 35, 2 mM DTT, 100 μM ATP) several separate reactions were made containing: 1) 100 nM Compound 15; 2) 100 nM […]+100 nM P-Tyr-100 monoclonal anti-phosphotyrosine antibody (Cell Signaling Technology, catalog # 9411); 3) 100 nM Compound 15+100 nM P-Tyr-100+10 μM phospho-pp60 c-src peptide (521-533) (TSTEPQY*QPGENL) from Bachem, catalog # H-3258; 4) 100 nM Compound 15+100 nM P-Tyr-100+10 μM phospho-abl peptide (EAIY*AAPFAKKK), custom peptide MPIJ6 from Anaspec. The resulting fluorescence was measured using a Hitachi F-4500 cuvette fluorimeter using 100 μl cuvettes. The F-4500 was set on ‘emission scan’, with an excitation at 470 nm, slit width of 5 nm, emission scan from 485-650 nm, slit width 5 nm, and the PMT gain was at 700 V.

The test system is the same in test [4]. The experiment in a line: Rapid displacement of the ligand analog by the target ligand, off rate (Example 13). The class given is binding, mouse. As to conditions: 100 nM Compound 15+100 nM P-Tyr-100; 10 μM phospho-pp60 c-src peptide added. On the procedure: A 5 mM solution of Compound 15 was prepared in water. In 150 μl kinase buffer (50 mM Tris, pH 7.5, 10 mM MgCl2, 1 mM EGTA, 0.01% Brij 35, 2 mM DTT, 100 μM ATP) a reaction was made containing 100 nM Compound 15+100 nM P-Tyr-100 monoclonal anti-phosphotyrosine antibody (Cell Signaling Technology, catalog # 9411). The fluorescence was measured over time using a Hitachi F-4500 fluorimeter (Ex 470, Em 510, slit width 5 nm for both wavelengths, PMT gain 700 V). After 15 seconds, 10 μM phospho-pp60 c-src peptide (521-533) (TSTEPQY*QPGENL) from Bachem, catalog # H-3258 was added.

In test [5] the target is P-Tyr-100 anti-phosphotyrosine monoclonal antibody. Kind of test: Determination of dissociation constants for antibody-ligand complexes (Example 23). It counts as binding, mouse. The conditions noted are these: 1 nM test compound, P-Tyr-100 0.02 to 40 nM; fluorescence intensity, single-site saturation fit; read-out: dissociation constant. The procedure:
Solutions of Compound 15 and Compound 34 (2 nM) were prepared in 50 mM Tris-HCl pH 7.5, 10 mM MgCl2, 0.01% Brij-35, 500 μM ATP, 2 mM DTT, 1 mM EGTA, 0.5 mg/ml bovine serum albumin. 25 μl aliquots of these solutions were pipetted into the wells of a 384-well microplate. 25 μl aliquots of a serially-diluted 0.08 μM stock solution of P-Tyr-100 anti-phosphotyrosine monoclonal antibody (Cell Signaling Technology, Beverly, Mass.) were added to the wells. The resulting samples contained 1 nM test compound and antibody concentrations ranging from 0.02 to 40 nM. Fluorescence intensities of triplicate samples at each antibody concentration were measured on an EnVision microplate reader (PerkinElmer Life Sciences) using excitation/emission filter settings of 480/535 nm. The mean (n=3) fluorescence intensities were plotted against the corresponding antibody concentrations. Dissociation constants were determined from hyperbolic single-site saturation binding functions fitted to the experimental data by nonlinear regression analysis (SigmaPlot, Jandel Scientific Inc). The dissociation constants obtained were 2.0 nM for Compound 15+P-Tyr-100 and 1.7 nM for Compound 34+P-Tyr-100.

Test [6] relates to P-Tyr-100 monoclonal anti-phosphotyrosine antibody. Kind of test: Z′ factor of displacement assay with Compound 34 (Example 14). The class given is binding, mouse. The conditions noted are these: Compound 34+P-Tyr-100 complex, phospho-pp60 c-src peptide. On the procedure:
A 2 mM solution of Compound 34 was prepared in water. Two working stocks were prepared in kinase buffer (50 mM Tris, pH 7.5, 10 mM MgCl2, 1 mM EGTA, 0.01% Brij 35, 2 mM DTT, 100 μM ATP): 1) 50 nM of Compound 34+100 nM P-Tyr-100 monoclonal anti-phosphotyrosine antibody (Cell Signaling Technology, catalog # 9411); 2) 100 μM phospho-pp60 c-src peptide (521-533) (TSTEPQY*QPGENL) from Bachem, catalog # H-3258. In two 384-well microplates, […] of the 50 nM Compound 34+100 nM P-Tyr-100 complex was added to 96 wells in each plate. To the same wells, 25 μl of either kinase buffer alone (48 wells each plate) or the 100 μM phospho-pp60 c-src peptide in kinase buffer (48 wells each plate) was added. The fluorescence was measured in a Victor^2 microplate reader (Wallac), 1 read/well for 0.2 sec each at 30000V gain, excitation 485+/−17.5 nm, emission 535+/−12.5 nm.
The Z′ statistic was calculated using equation 5 from Zhang, J.-H., Chung, T., D., Y., and Oldenburg, K. R. (1999) A simple statistical parameter for use in evaluation and validation of high throughput screening assays. J. Biomol. Screen. 4, 67-73. […] In other words, there is a 4-fold increase in fluorescent signal after the ligand analog is displaced by the phosphorylated peptide. See, FIG. 6.

For test [7], the system named is Rabbit anti-Akt polyclonal antibody. Kind of test: Binding of ethanolamine phosphate ligand analog by anti-Akt antibody (Example 10). The conditions noted are these: 50 nM compound, antibody zero to 250 nM. On the procedure:
A 5 mM solution of BODIPY FL ethanolamine phosphate Compound 2 was made in water. A 2.5 mM solution of BODIPY FL ethanolamine (Compound 1) was made in 50% (v/v) DMSO, See Example 1. Rabbit anti-Akt polyclonal antibody (Cell Signaling Technology, catalog # 9611) was serially diluted in 5 μl 50 mM Tris buffer, pH 7.5 in a black, 384-well flat-bottom Packard ProxiPlate preblocked with 0.25% (v/v) Mowiol. After the antibody was serially diluted in the plate, 5 μl of either Compound 2 or Compound 1 was added to the same wells. The final concentration of both compounds in the wells was each 50 nM. The final antibody concentration in the wells was zero to 250 nM. The fluorescence intensity was measured on an EnVision microplate reader (Perkin Elmer), PMT 1 gain 155, PMT 2 gain 191, excitation light 76%, 100 flashes at 9 mM height.

Regarding 6-FITC phosphotyramide [Compound 19], the Fmax/Fmin in test [1] is given as 1.6.

Consider `Nc1ncnc2c1ncn2[C@@H]1O[C@H](COP(=O)(O)OP(=O)(O)OP(=O)(O)O)[C@@H](O)[C@H]1O` [ATP], for which the “displacement of the phosphotyramide ligand analog” value in test [2] is “does not displace”.

In the case of `O=C(CSc1c(F)c(F)c(C(=O)O)c(-c2c3cc(F)c(=O)cc-3oc3cc(O)c(F)cc23)c1F)NCCc1ccc(OP(=O)(O)O)cc1` [Compound 7, Oregon Green 514 phosphotyramide], the Fmax/Fmin in test [1] was 4.0.

For the molecule `O=C(NCCc1ccc(OP(=O)(O)O)cc1)c1ccc(-c2c3ccc(=O)cc-3oc3cc(O)ccc23)c(C(=O)O)c1` [Compound 8, 5-FAM phosphotyramide], the “performance in displacement assay, 6-position vs 5-position” value in test [1] (fluorescence intensity readout) is on record as “superior performance”. In addition, in test [1], the Fmax/Fmin turned out to be 1.3.

Regarding `O=C(NCCc1ccc(OP(=O)(O)O)cc1)c1ccc(C(=O)O)c(-c2c3ccc(=O)cc-3oc3cc(O)ccc23)c1` [Compound 9, 6-FAM phosphotyramide], in test [1] (compared to Compound 8), the “binding affinity for the antibody, 6-isomer compared to 5-isomer” value was “increased binding affinity” and the “quenching by the antibody, 6-isomer compared to 5-isomer” value is “increased quenching”. In addition, in test [1], the Fmax/Fmin was 3.2.

Take `CN(C)c1ccc2c(-c3cc(C(=O)NCCc4ccc(OP(=O)([O-])O)cc4)ccc3C(=O)O)c3ccc(=[N+](C)C)cc-3oc2c1` [Compound 12]: in test [1] (methods of Example 22), the “fluorescence intensity change on antibody binding” value is recorded as “little or no analytically useful fluorescence intensity change” and the “fluorescence polarization change on antibody binding” value is recorded as “large fluorescence polarization changes”.

For `O=C(NCCc1ccc(OP(=O)(O)O)cc1)c1ccc(C(=O)O)c(-c2c3cc(F)c(=O)cc-3oc3cc(O)c(F)cc23)c1` [Compound 15, Oregon Green 488 6-phosphotyramide], the “quenching of the reporter molecule on addition of P-Tyr-100 antibody” value in test [3] is “significantly quenched”. Besides, in test [4], the off rate was determined as 0.14 s⁻¹. Also, in test [1], the Fmax/Fmin is recorded as 5.4. In test [5], the Kd turned out to be 2 nM.

For the molecule `O=C(O)c1cc(NC(=S)NCCc2ccc(OP(=O)(O)O)cc2)ccc1-c1c2ccc(=O)cc-2oc2cc(O)ccc12` [Compound 18, 5-FITC phosphotyramide], the Fmax/Fmin in test [1] was 1.7.

`NC(=O)C(Cc1ccc(OP(=O)(O)O)cc1)NC(=O)c1ccc(C(=O)O)c(-c2c3cc(F)c(=O)cc-3oc3cc(O)c(F)cc23)c1` (stereo not drawn) [Compound 34]: the “increase in fluorescent signal after the ligand analog is displaced by the phosphorylated peptide” value in test [6] is given as 4 fold. Besides, the Kd in test [5] stood at 1.7 nM.

Turning to “BODIPY FL ethanolamine phosphate [Compound 2]”, the “quenching of ligand analog when bound by the antibody” value in test [7] was “slightly quenched”.

The record behind these values is patent US7282339B2, “Competitive immunoassay” (Invitrogen Corporation, priority 2003, dated 2007).
